IC50 data for 13 compounds are collected here from patent US7772268B2, “Diacyl indazole derivatives as lipase and phospholipase inhibitors” (Sanofi-Aventis, priority 2005, dated 2010).

For one experiment, the target named is T1, hormone sensitive lipase, HSL (Rattus norvegicus, UniProt P15304).
T1 construct: Isolated rat fat cells are obtained from epididymal adipose tissue; from tissue; host or cells: rat epididymal adipose tissue (isolated fat cells, Wistar rats)
T1 sequence (P15304 301-1068 limits assumed): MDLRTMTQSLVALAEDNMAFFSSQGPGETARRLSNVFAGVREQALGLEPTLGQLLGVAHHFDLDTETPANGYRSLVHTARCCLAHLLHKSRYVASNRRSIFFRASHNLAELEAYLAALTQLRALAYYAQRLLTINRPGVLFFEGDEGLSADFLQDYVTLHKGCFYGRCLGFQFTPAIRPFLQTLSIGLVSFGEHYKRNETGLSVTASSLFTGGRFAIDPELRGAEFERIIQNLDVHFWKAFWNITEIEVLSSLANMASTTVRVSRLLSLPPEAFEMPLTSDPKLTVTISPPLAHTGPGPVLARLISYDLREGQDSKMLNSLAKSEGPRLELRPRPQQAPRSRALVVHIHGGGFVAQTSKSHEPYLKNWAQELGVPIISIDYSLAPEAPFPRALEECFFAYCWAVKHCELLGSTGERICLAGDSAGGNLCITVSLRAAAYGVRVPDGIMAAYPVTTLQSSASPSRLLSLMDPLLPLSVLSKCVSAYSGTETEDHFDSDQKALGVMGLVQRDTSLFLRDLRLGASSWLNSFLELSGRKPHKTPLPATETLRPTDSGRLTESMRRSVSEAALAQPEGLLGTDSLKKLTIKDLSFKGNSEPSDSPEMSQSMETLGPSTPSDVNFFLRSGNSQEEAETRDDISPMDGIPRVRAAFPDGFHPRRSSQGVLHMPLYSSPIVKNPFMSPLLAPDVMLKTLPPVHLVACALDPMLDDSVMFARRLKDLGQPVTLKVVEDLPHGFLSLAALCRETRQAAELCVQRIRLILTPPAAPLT
The experiment in a line: HSL inhibition assay (partially purified HSL, [3H]trioleoylglycerol substrate). The format is biochemical. To be noted: partially purified HSL from rat fat cells; 37° C., 30 min. The protocol:
Preparation of the partially purified HSL:
Isolated rat fat cells are obtained from epididymal adipose tissue from untreated male rats (Wistar, 220-250 g) by collagenase treatment in accordance with published methods (e.g. S, Nilsson et al., Anal. Biochem. 158, 1986, 399-407; G. Fredrikson et al., J. Biol. Chem. 256, 1981, 6311-6320; H. Tornquist et al., J. Biol. Chem. 251, 1976, 813-819). The fat cells from 10 rats are washed three times by flotation with 50 ml of homogenization buffer ([…] Tris/HCl, pH 7.4, 0.25 M sucrose, 1 mM ETDA, 1 mM DTT, 10 μg/ml leupeptin, 10 μg/ml antipain, 20 μg/ml pepstatin) each time and finally taken up in 10 ml of homogenization buffer. The fat cells are homogenized in a Teflon-in-glass homogenizer (Braun-Melsungen) by 10 strokes at 1500 rpm and 15° C. The homogenate is centrifuged (Sorvall SM24 tubes, 5000 rpm, 10 min, 4° C.). The subnatant between the layer of fat at the top and the pellet is removed and the centrifugation is repeated. The subnatant resulting therefrom is centrifuged again (Sorvall SM24 tubes, 20 000 rpm, 45 min, 4° C.). […] After incubation at 4° C. for 60 min (shaking at intervals of 15 min), the mixture is centrifuged (Sorvall SM24 tubes, 3000 rpm, 10 min, 4° C.). The supernatant is adjusted to pH 5.2 by adding glacial acetic acid and is incubated at 4° C. for 30 min. The precipitates are collected by centrifugation (Sorvall SS34, 12 000 rpm, 10 min, 4° C.) and suspended in 2.5 ml of 20 mM Tris/HCl, pH 7.0, 1 mM EDTA, 65 mM NaCl, 13% sucrose, 1 mM DTT, 10 μg/ml leupeptin/pepstatin/antipain. The suspension is dialyzed against 25 mM Tris/HCl, pH 7.4, 50% glycerol, 1 mM DTT, 10 μg/ml leupeptin, pepstatin, antipain at 4° C. overnight and then loaded onto a hydroxiapatite column (0.1 g per 1 ml of suspension, equilibrated with 10 mM potassium phosphate, pH 7.0, 30% glycerol, 1 mM DTT). The column is washed with four volumes of equilibration buffer at a flow rate of 20 to 30 ml/h. The HSL is eluted with one volume of equilibration buffer containing 0.5 M potassium phosphate and then dialyzed (see above) and concentrated 5- to 10-fold by ultrafiltration (Amicon Diaflo PM 10 Filter) at 4° C. The partially purified HSL can be stored at −70° C. for 4 to 6 weeks.
To prepare the substrate, 25-50 μCi of [3H]trioleoylglycerol (in toluene), 6.8 μmol of unlabeled trioleoylglycerol and 0.6 mg of phospholipids (phosphatidylcholine/phosphatidylinositol 3:1 w/v) are mixed, dried with N2 and then taken up in 2 ml of 0.1 M KPi (pH 7.0) by ultrasound treatment (Branson 250, microtip, setting 1-2, 2×1 min with an interval of 1 min). After addition of 1 ml of KPi and renewed ultrasound treatment (4×30 sec on ice with intervals of 30 sec), 1 ml of 20% BSA (in KPi) is added (final concentration of trioleoylglycerol 1.7 mM). For the reaction, 100 μl of substrate solution are pipetted into 100 μl of HSL solution (HSL prepared as above, diluted in 20 mM KPi, pH 7.0, 1 mM EDTA, 1 mM DTT, 0.02% BSA, 20 μg/ml pepstatin, 10 μg/ml leupeptin) and incubated at 37° C. for 30 min. Addition of 3.25 ml of methanol/chloroform/heptane (10:9:7) and of 1.05 ml of 0.1 M K2CO3, 0.1 M boric acid (pH 10.5) is followed by thorough mixing and finally centrifugation (800×g, 20 min). After phase separation, one equivalent of the upper phase (1 ml) is removed and the radioactivity is determined by liquid scintillation measurement.
Substances are normally tested in four independent mixtures. The inhibition of the HSL enzymatic activity by a test substance is determined by comparing with an uninhibited control reaction. The IC50 is calculated from an inhibition plot with at least 10 concentrations of the test substance. The GRAPHIT, Elsevier-BIOSOFT software package is used to analyze the data.
As to `O=C(Oc1nn(C(=O)N2CCN(c3ccccc3)CC2)c2cc(F)ccc12)N1CCN(c2ccccc2)CC1` [Example 1a, 6-Fluoro-1-(4-phenylpiperazine-1-carbonyl)-1H-indazol-3-yl 4-phenylpiperazine-1-carboxylate], 0.32 µM corresponded to half-maximal inhibition (IC50). Still for that read-out and setting: as for `O=C(N1CCN(c2ccccc2)CC1)n1c(=O)c2ccc(F)cc2n1C(=O)N1CCN(c2ccccc2)CC1` [Example 1b, 6-fluoro-1,2-bis(4-phenylpiperazine-1-carbonyl)-1,2-dihydroindazol-3-one], the figure is 0.62 µM; as for `O=C(Oc1nn(C(=O)N2CCc3sccc3C2)c2cc(F)ccc12)N1CCc2sccc2C1` [Example 2, 1-(6,7-Dihydro-4H-thieno[3,2-c]pyridine-5-carbonyl)-6-fluoro-1H-indazol-3-yl 6,7-dihydro-4H-thieno[3,2-c]pyridine-5-carboxylate], 1.11 µM; as for `CC1CCN(C(=O)Oc2nn(C(=O)N3CCC(C)CC3)c3cc(F)ccc23)CC1` [Example 9b, 6-fluoro-1-(4-methylpiperidine-1-carbonyl)-1H-indazol-3-yl 4-methylpiperidine-1-carboxylate], 1.15 µM.

Turning to `CC1CCN(C(=O)Oc2nn(C(=O)N3CCC(C(F)(F)F)CC3)c3cc(N)ccc23)CC1` [Example 14, 6-Amino-1-(4-trifluoromethylpiperidine-1-carbonyl)-1H-indazol-3-yl 4-methyl-piperidine-1-carboxylate], half-maximal inhibition (IC50) required 1 µM. Still for that read-out and setting: as for `Cc1cc(O)nc2c1c(OC(=O)N1CCC(C(F)(F)F)CC1)nn2C(=O)N1CCN(C)CC1` [Example 15, 6-Hydroxy-4-methyl-1-(4-methylpiperazine-1-carbonyl)-1H-pyrazolo[3,4-b]pyridin-3-yl 4-trifluoromethylpiperidine-1-carboxylate], the figure is 1.5 µM; as for `Cc1cc(O)nc2c1c(OC(=O)N1CCC(C)CC1)nn2C(=O)N1CCC(C(F)(F)F)CC1` [Example 16, 6-Hydroxy-4-methyl-1-(4-trifluoromethylpiperidine-1-carbonyl)-1H-pyrazolo-[3,4-b]pyridin-3-yl 4-methylpiperidine-1-carboxylate], 0.58 µM.

The next experiment deals with T2, endothelial lipase (EL) (Homo sapiens, UniProt Q9Y5X9).
T2 construct: made in house; host or cells: recombinant cell lines CHO, HEK293 (conditioned medium, concentrated)
T2 sequence (Q9Y5X9 21-500): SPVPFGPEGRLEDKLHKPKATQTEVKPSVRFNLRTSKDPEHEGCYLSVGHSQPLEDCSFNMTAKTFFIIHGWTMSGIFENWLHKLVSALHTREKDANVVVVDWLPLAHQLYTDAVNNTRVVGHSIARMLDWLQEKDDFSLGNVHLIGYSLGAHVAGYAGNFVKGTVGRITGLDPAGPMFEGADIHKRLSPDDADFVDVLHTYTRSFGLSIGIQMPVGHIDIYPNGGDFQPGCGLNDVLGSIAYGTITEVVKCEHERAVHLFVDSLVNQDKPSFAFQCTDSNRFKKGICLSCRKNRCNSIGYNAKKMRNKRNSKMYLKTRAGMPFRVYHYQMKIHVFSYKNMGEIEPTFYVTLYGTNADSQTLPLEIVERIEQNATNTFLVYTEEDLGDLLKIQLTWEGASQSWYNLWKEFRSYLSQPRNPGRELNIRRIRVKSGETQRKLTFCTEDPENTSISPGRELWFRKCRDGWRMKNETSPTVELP
Put plainly: EL inhibition assay (conditioned medium of recombinant cell lines, Bodipy phospholipid substrate). The format is biochemical. To be noted: EL from conditioned medium (CHO, HEK293); 37° C., 60 minutes. From the text: EL is released as secretory protein in high concentration into cell culture medium (conditioned medium) by recombinant cell lines (CHO, HEK293). This is employed as enzyme solution after concentration.
The phospholipase-specific substrate 1,2-bis(4,4-difluoro-5,7-dimethyl-4-bora-3a,4a-diaza-s-indacene-3-undecanoyl)-sn-glycero-3-phosphocholine, (manufacturer Molecular Probes) is used to characterize the enzymatic activity of endothelial lipase and the effect of inhibitors. Hydrolysis of the A1 ester linkage of this phospholipid by the enzyme liberates the fluorescent dye Bodipy which can be detected after separation by thin-layer chromatography on an HPTLC plate (silica gel 60, Merck) or directly in the reaction vessel by measuring the fluorescence.
The substrate solution is prepared by taking up 100 μg of 1,2-bis(4,4-difluoro-5,7-dimethyl-4-bora-3a,4a-diaza-s-indacene-3-undecanoyl)-sn-glycero-3-phospho-choline (manufacturer Molecular Probes), 2.4 mg of tripalmitin (Sigma) and 7.9 mg of DOP—choline (1,2-dioleoyl-sn-glycero-3-phosphocholine) in 393 μl of chloroform and then transferring 157 μl into a fresh reaction vessel. After evaporation of the solvent, the lipid mixture is dissolved in 4 ml of 200 mM TRIS-HCl, 150 mM sodium chloride, pH=7.4, by sonication twice. The subsequent enzymic reaction takes place at 37° C. for 60 minutes. For this purpose, 45 μl of the substrate solution are incubated with 1 μl of inhibitor of appropriate concentration (dissolved in DMSO, pure DMSO solution is used as control) and 5 μl of enzyme solution (conditioned medium). Then 3 μl of the assay mixture are loaded onto an HPTLC plate (silica gel 60, Merck), and the liberated fluorescent dye is separated for detection with an eluent (diethyl ether:petroleum benzene:acetic acid [78:22:1]). After evaporation of the eluent, the plate is read in a fluorescence scanner. An increased release of the fluorescent dye in the uninhibited reaction is to be observed as a measure of the enzymic activity.
The enzymatic activity is reduced as a function of the inhibitor concentration used, and the inhibitor concentration at which a half-maximum enzymatic activity is observed is called IC50.
Regarding “6-Chloro-3-oxo-3H-indazole-1,2-dicarboxylic acid bisbenzylamide [Example 11a]”, the 50% inhibitory concentration (IC50) (in general, the point on the concentration scale where inhibition reaches its midpoint) was found to be 0.26 µM. “6-Chloro-3-oxo-3H-indazole-1,2-dicarboxylic acid bishexylamide [Example 10a]”: the IC50 stood at 0.05 µM. Same read-out and setting: as for `CCCCCCNC(=O)Oc1nn(C(=O)NCCCCCC)c2cc(Cl)ccc12` [Example 10b, 6-chloro-1-hexylcarbamoyl-1H-indazol-3-yl hexylcarbamate], the figure is 0.06 µM; as for `O=C(NCc1ccccc1)Oc1nn(C(=O)NCc2ccccc2)c2cc(Cl)ccc12` [Example 11b, 1-benzylcarbamoyl-6-chloro-1H-indazol-3-yl benzyl carbamate], 1.47 µM. Same read-out and setting: to `Cc1ccccc1CNC(=O)n1c(=O)c2ccccc2n1C(=O)N1CCC(C)CC1` [Example 12, 1-(4-Methylpiperidine-1-carbonyl)-3-oxo-1,3-dihydroindazole-2-carboxylic acid 2-methylbenzylamide] belongs 0.22 µM; to `Cc1ccccc1CNC(=O)n1c(=O)c2ccccc2n1C(=O)NCc1ccccc1C` [Example 13, 3-Oxo-3H-indazole-1,2-dicarboxylic acid bis(2-methylbenzylamide)], 0.84 µM.
